From ChEMBL document CHEMBL1137842, “Fluorinated dihydroquinolines as potent n-NOS inhibitors” (Bioorg Med Chem Lett, 2004)

Target: Nitric oxide synthase, inducible (Homo sapiens, UniProt P35228)
Assay: Inhibition of human inducible nitric oxide synthase

Nitric oxide synthase, inducible, sequence (P35228 whole entry): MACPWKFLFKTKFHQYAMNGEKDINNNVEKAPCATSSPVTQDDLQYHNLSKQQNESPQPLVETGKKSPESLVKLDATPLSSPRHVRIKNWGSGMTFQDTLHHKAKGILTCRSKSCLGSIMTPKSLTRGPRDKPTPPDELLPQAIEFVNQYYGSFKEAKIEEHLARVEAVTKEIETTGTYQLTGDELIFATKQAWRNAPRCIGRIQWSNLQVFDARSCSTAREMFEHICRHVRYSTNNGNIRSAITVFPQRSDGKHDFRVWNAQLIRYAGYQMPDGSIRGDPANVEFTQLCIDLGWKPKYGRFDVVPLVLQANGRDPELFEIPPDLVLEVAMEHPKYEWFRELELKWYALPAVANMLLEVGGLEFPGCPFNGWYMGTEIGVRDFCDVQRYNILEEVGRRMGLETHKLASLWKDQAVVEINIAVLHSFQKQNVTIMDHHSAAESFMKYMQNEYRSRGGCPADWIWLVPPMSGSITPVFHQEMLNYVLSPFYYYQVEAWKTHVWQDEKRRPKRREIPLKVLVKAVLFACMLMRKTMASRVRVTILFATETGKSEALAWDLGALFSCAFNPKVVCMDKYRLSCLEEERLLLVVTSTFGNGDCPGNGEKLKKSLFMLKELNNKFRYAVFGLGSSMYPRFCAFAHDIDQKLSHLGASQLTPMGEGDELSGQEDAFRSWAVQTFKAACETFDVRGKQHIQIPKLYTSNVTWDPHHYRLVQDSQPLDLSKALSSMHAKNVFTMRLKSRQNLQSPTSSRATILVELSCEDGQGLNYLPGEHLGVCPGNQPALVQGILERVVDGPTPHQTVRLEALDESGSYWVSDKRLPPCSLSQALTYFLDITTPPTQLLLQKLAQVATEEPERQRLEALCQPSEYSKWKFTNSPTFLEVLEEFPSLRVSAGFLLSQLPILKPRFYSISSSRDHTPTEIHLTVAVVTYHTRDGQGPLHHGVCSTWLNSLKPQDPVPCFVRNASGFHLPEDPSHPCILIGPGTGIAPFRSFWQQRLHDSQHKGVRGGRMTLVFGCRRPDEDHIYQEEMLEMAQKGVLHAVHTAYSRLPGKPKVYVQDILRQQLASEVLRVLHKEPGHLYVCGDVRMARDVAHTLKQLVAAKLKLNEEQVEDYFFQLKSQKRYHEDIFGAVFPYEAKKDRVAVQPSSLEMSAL

Row | IC50 [nM] | Structure (SMILES)
1 | 1400 | CNCc1ccc2c(c1)N=C(N)[C@]1(F)CCC[C@H]21
2 | 1900 | CNCCc1ccc2c(c1)N=C(N)[C@]1(F)CCC[C@H]21
3 | 2200 | NC1=Nc2cc(CCCNCc3cccc(Cl)c3)ccc2[C@H]2CCC[C@@]12F
4 | 8100 | NC1=Nc2ccc(Cl)cc2[C@H]2CCC[C@@]12F
5 | 8100 | NC1=Nc2c(F)cc(Cl)cc2[C@H]2CCC[C@@H]12
6 | 25000 | NC1=Nc2c(F)cccc2[C@H]2CCC[C@@]12F

Row | Structure (SMILES) | IC50 [nM]
7 | NC1=Nc2ccccc2[C@H]2CCC[C@@]12F | 2100

Target: T1, Nitric oxide synthase 3 (Homo sapiens, UniProt P29474)
T1 sequence (P29474 whole entry): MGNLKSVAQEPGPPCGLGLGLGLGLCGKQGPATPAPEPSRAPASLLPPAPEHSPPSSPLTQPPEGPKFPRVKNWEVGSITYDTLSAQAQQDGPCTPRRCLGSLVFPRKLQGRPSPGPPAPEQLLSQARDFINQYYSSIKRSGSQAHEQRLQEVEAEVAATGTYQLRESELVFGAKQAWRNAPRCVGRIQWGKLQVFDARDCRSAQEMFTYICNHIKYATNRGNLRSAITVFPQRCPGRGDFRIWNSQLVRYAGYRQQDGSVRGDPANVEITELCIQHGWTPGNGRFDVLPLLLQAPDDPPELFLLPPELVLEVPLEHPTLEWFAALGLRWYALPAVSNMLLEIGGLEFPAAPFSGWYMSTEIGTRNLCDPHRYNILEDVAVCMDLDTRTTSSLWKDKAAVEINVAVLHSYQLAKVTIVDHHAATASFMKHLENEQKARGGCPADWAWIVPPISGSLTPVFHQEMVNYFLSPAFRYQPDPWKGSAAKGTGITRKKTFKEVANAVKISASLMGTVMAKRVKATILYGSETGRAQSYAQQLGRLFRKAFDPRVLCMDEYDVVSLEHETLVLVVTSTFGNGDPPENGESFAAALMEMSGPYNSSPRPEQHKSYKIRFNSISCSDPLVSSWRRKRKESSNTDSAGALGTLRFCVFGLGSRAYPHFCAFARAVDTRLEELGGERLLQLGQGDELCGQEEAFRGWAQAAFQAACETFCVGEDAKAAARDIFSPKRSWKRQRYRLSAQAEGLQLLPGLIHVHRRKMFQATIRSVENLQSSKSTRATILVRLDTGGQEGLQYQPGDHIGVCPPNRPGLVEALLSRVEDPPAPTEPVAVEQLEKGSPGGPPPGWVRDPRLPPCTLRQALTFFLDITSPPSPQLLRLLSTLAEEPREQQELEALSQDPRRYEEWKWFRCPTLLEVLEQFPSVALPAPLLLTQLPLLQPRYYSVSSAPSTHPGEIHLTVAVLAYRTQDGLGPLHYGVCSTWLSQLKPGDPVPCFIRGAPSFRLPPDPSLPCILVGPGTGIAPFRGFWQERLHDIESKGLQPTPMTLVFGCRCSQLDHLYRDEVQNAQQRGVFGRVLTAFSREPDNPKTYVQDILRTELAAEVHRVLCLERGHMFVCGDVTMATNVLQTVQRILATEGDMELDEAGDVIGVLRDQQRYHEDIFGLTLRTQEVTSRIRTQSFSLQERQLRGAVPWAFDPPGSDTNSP
Assay: Inhibition of human endothelial nitric oxide synthase

Row | IC50 [nM] | Structure (SMILES)
8 | 66000 | CNCc1ccc2c(c1)N=C(N)[C@]1(F)CCC[C@H]21
9 | 79000 | CNCCc1ccc2c(c1)N=C(N)[C@]1(F)CCC[C@H]21
10 | 38000 | NC1=Nc2cc(CCCNCc3cccc(Cl)c3)ccc2[C@H]2CCC[C@@]12F
11 | 14000 | NC1=Nc2ccc(Cl)cc2[C@H]2CCC[C@@]12F
12 | 14000 | NC1=Nc2c(F)cc(Cl)cc2[C@H]2CCC[C@@H]12
13 | 22000 | NC1=Nc2c(F)cccc2[C@H]2CCC[C@@]12F

Row | Structure (SMILES) | IC50 [nM]
14 | NC1=Nc2ccccc2[C@H]2CCC[C@@]12F | 2700

Tested on: not listed separately
Assay: pKa value by photometric titration
Assay type: physicochemical

Row | pKa | Structure (SMILES)
15 | 8.5 | NC1=Nc2c(F)cccc2[C@H]2CCC[C@@H]12
16 | 9.7 | NC1=Nc2ccccc2[C@H]2CCC[C@@H]12
17 | 9.9 | NC1=Nc2cc(CCCNCc3cccc(Cl)c3)ccc2[C@H]2CCC[C@@H]12
18 | 7.9 | CNCCc1ccc2c(c1)N=C(N)[C@]1(F)CCC[C@H]21
19 | 8 | NC1=Nc2cc(CCCNCc3cccc(Cl)c3)ccc2[C@H]2CCC[C@@]12F
20 | 9.4 | NC1=Nc2ccc(Cl)cc2[C@H]2CCC[C@@H]12
21 | 7.6 | NC1=Nc2ccc(Cl)cc2[C@H]2CCC[C@@]12F
22 | 8 | NC1=Nc2c(ccc(F)c2F)[C@H]2CCC[C@@H]12
23 | 8.2 | NC1=Nc2c(F)cc(Cl)cc2[C@H]2CCC[C@@H]12
24 | 6.6 | NC1=Nc2c(F)cccc2[C@H]2CCC[C@@]12F

Row | Structure (SMILES) | pKa
25 | NC1=Nc2ccccc2[C@H]2CCC[C@@]12F | 7.9

Target: Nitric oxide synthase 1 (Homo sapiens, UniProt P29475)
Sequence (P29475 whole entry): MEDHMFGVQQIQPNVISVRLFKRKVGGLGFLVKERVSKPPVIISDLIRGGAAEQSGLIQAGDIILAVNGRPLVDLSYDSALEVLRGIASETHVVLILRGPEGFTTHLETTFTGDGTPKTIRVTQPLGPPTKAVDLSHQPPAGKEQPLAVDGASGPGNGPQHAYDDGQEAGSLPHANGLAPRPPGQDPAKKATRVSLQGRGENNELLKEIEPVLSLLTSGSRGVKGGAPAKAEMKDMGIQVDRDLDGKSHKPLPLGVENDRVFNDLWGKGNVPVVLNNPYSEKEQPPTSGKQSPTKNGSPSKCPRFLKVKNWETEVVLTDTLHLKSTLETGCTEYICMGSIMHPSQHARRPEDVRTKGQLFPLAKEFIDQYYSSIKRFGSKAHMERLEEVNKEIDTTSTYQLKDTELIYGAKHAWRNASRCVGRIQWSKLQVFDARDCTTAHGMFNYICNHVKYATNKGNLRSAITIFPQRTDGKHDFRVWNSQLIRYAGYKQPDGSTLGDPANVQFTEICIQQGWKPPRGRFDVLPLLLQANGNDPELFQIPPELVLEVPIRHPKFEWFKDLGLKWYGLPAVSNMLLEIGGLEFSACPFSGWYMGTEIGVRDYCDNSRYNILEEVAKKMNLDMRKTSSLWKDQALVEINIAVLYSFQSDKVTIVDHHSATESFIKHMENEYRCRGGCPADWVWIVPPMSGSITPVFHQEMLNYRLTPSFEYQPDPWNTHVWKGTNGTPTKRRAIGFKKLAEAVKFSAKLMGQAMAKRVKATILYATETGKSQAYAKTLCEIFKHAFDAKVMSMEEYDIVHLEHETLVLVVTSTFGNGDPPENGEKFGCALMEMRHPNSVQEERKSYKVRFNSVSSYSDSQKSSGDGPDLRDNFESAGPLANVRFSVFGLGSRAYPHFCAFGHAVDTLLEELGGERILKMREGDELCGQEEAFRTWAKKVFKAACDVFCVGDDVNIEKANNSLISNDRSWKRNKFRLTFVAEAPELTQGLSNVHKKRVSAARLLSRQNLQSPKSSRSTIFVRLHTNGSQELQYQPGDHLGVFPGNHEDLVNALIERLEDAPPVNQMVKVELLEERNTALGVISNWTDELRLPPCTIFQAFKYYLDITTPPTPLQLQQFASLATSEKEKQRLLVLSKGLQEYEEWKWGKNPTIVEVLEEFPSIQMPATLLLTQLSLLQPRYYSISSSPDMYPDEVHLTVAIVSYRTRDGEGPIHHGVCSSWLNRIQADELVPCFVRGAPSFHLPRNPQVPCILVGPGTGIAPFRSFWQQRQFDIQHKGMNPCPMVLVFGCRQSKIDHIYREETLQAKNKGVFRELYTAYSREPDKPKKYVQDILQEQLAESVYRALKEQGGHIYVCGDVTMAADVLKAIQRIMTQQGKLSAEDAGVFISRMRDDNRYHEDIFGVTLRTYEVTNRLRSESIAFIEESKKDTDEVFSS
Assay: Inhibition of human neuronal nitric oxide synthase

Row | IC50 [nM] | Structure (SMILES)
26 | 660 | CNCc1ccc2c(c1)N=C(N)[C@]1(F)CCC[C@H]21
27 | 390 | CNCCc1ccc2c(c1)N=C(N)[C@]1(F)CCC[C@H]21
28 | 310 | NC1=Nc2cc(CCCNCc3cccc(Cl)c3)ccc2[C@H]2CCC[C@@]12F
29 | 290 | NC1=Nc2ccc(Cl)cc2[C@H]2CCC[C@@]12F
30 | 290 | NC1=Nc2c(F)cc(Cl)cc2[C@H]2CCC[C@@H]12
31 | 590 | NC1=Nc2c(F)cccc2[C@H]2CCC[C@@]12F

Row | Structure (SMILES) | IC50 [nM]
32 | NC1=Nc2ccccc2[C@H]2CCC[C@@]12F | 100
